Data on 4 compounds can be found in PMC7247329, “Kaempferol and Its Glycoside, Kaempferol 7-O-rhamnoside, Inhibit PD-1/PD-L1 Interaction In Vitro” (International Journal of Molecular Sciences, 2020).

One data set deals with hPD-L1. Details: method as in PMID 31455818, PMID 31374878. To be noted: biochemical results; cited from earlier work.
In data set [1] the test system is PD-1/PD-L1 interaction in co-cultured PD-1 Jurkat T cells and PD-L1/aAPC CHO-K1 cells. The experiment in a line: Cell-based PD-1/PD-L1 blockade bioassay (NFAT-luciferase reporter, co-culture). Also on record: species or system human. To be noted: co-culture 24 h; for pEC50: Homo sapiens. The text has this: When co-cultured with PD-1 Jurkat T cells and PD-L1/aAPC CHO-K1 cells, TCR activation is restrained by PD-1/PD-L1 ligation and the NFAT-luciferase reporter activity. When PD-1/PD-L1 interaction is disrupted, TCR activation induces luminescence via activation of the NFAT pathway in co-culture systems. Therefore, the effects of KO and its glycosides on PD-1/PD-L1 interaction in the cell model system were examined by measuring NFAT-luciferase reporter activity after co-culture with PD-1/NFAT Reporter-Jurkat cells and PD-L1/aAPC CHO-K1 cells. […] The results described above indicate that KO and its glycosides are involved with the PD-1/PD-L1 blockade, as confirmed by the biochemical assay.
A PD-1/PD-L1 Blockade Bioassay kit was used according to the supplier’s instructions (Promega, Fitchburg, WI, USA) with a slight modification. Briefly, the PD-L1 aAPC/CHO-K1 cells were seeded in 96-well plates at a density of 5 × 10^4/well in the complete culture medium. A few hours later, the medium was removed, and 1 × 10^5 PD-1 Jurkat cells were added to each well with test inhibitors. The cells were cultured for 24 h at 37 °C and then lysed using the Bio-Glo™ Luciferase Assay System (Promega, Madison, WI, USA). After incubation for 15 min, luminescence was quantified using a GloMax® Explorer Multimode Microplate Reader (Promega). Data are presented as fold to untreated control.
Background: In a reporter assay the amount or activity of a reporter protein is the signal.

A further data set concerns PD-L1/aAPC CHO-K1 cells. The experiment in a line: Cell Counting Kit-8 (CCK) cell viability assay. In kind it is cell-based. As to conditions: 24 h. (In general: Formazan colour is commonly taken as a measure of viable cells.)
The subject of another data set is PD-1 Jurkat cells. The experiment in a line: Cell Counting Kit-8 (CCK) cell viability assay. It counts as cell-based, human. To be noted: 24 h.
Data set [2] has as its system PD-1 level in co-cultured PD-1 Jurkat cells and PD-L1 CHO-K1 cells. The experiment in a line: Western blot of PD-1 expression in co-cultured cells. In kind it is cell-based, human. As to conditions: 24 h. Background: Immunoblotting shows a protein as a band on a membrane.
Data set [3] concerns the target T1, PD-1/PD-L1 protein–protein interaction (Homo sapiens, UniProt Q9NZQ7).
T1 construct: purchased BPS Bioscience #71104 (hPD-L1); #71109 (biotinylated hPD-1); kit #72005
The experiment in a line: PD-1/PD-L1 competitive ELISA. In kind it is binding.
Procedure: To elucidate the effect of test inhibitors on PD-1/PD-L1 protein–protein interaction, PD-1/PD-L1 Competitive ELISA Screening Kits (BPS Bioscience Inc., San Diego, CA, USA) were used according to the supplier’s instructions [27]. Briefly, recombinant hPD-L1 (BPS Bioscience, #71104) was coated overnight at 1 μg/mL in phosphate-buffered saline (PBS) in 96-well plates (Corning Inc., New York, NY, USA). Plates were washed with PBS containing 0.1% Tween (PBS-T), blocked for 1 h at room temperature with PBS containing 2% (w/v) BSA, and then washed again. Fifty microliters of 0.5 μg/mL biotinylated hPD-1 (BPS Bioscience, #71109) was added to the wells, and the plates were incubated for 2 h at room temperature. After three washes in PBS-T, 50 μL of 0.2 μg/mL HRP-conjugated streptavidin was added to each well, and the plates were incubated for 1h. After incubation, plates were washed three times in 0.1% PBS-T, and relative chemiluminescence was measured on a SpectraMax L Luminometer from Molecular Devices (San Jose, CA, USA).

The conditions of data set [4]: reported; no reference given; cited from earlier work.
The target in a further data set is recombinant PD-1 (hPD-1) (Homo sapiens, UniProt Q15116). The experiment in a line: Surface plasmon resonance (Biacore T200). In kind it is binding. As to conditions: SPR.
Chain of recombinant PD-1 (hPD-1) (Q15116 25-170 limits assumed): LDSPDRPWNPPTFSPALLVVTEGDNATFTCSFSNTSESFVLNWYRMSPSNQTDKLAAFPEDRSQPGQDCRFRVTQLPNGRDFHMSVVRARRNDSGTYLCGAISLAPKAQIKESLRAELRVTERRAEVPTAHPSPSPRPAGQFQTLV
Another data set has as its target T2, biotinylated human PD-1 (Homo sapiens, UniProt Q15116).
T2 construct: purchased BioVision
The experiment in a line: Biolayer interferometry (BLItz) kinetic analysis. It counts as binding. Here is the method: (§1) To measure the binding affinities and kinetic constants of test inhibitors, BLI analysis was conducted according to a previous report, with slight modifications. Briefly, BLI on a BLItz system is a label-free analytic technology for biomolecular interactions by measuring interference patterns of light reflected from two surfaces. After pre-equilibration of the SA BLI sensor (Pall FortéBio Corp., Menlo Park, CA, USA) in PBS buffer for 10 min, biotinylated human PD-1 (BioVision, Milpitas, CA, USA) and PD-L1 (Sino biological, Beijing, China) were fully loaded onto the sensors by immersion in 4 μL of PD-1 and PD-L1 solution and then dissolved in PBS buffer to 50 μg/mL. Test inhibitors for the kinetic analysis were prepared by 100-fold dilution of stock solution and dissolved in 100% DMSO (0, 0.25, 0.5, and 0.75 mM) in PBS buffer. Binding kinetics were measured as follows: step 1, initial baseline in PBS buffer containing 1% DMSO for 15 s; step 2, association in 4 μL of test inhibitors solution for 20 s; and step 3, dissociation in PBS buffer containing 1% DMSO for 20 s. The kinetic constants were calculated using the BLItz Pro software by fitting the association and dissociation data to a 1:1 model. The equilibrium dissociation constant, KD, was calculated as the dissociation constant (kd)/association constant (ka).

In a further data set the target is T3, biotinylated human PD-L1 (Homo sapiens, UniProt Q9NZQ7).
T3 construct: purchased Sino Biological
T3 sequence (Q9NZQ7 19-290): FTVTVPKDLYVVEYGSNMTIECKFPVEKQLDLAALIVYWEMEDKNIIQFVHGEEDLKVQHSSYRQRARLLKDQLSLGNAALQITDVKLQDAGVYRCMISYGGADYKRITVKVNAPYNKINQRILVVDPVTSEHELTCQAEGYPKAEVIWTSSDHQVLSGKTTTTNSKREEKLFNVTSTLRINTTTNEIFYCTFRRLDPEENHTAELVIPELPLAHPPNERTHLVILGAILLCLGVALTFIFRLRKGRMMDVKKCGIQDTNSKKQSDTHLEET
The experiment in a line: Biolayer interferometry (BLItz) kinetic analysis. It counts as binding. Here is the method: as §1

pEC50, pIC50, pKd: −log10 of the molar value. Values joined by “and” are separate entries in the source; they are usually repeats but may differ in a detail not shown here. Identical values can stand only once.

T2 sequence (Q15116 25-288): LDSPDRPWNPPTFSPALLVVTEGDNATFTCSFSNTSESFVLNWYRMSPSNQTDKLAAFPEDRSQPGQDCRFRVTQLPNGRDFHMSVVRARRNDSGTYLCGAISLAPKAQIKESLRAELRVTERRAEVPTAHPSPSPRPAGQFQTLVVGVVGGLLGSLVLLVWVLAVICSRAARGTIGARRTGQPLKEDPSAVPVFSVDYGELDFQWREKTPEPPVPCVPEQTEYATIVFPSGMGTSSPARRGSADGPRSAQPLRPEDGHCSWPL
T1 sequence (Q9NZQ7 19-239 limits assumed): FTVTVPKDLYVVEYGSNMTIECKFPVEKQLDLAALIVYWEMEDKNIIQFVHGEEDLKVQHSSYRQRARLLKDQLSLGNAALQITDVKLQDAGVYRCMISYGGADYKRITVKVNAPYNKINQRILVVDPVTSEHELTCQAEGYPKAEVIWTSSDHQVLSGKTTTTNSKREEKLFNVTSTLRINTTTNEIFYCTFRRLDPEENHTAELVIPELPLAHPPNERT

As to `C[C@@H](O)[C@H](NC(=O)N[C@@H](CC(N)=O)c1nc([C@@H](N)CO)no1)C(=O)O` [CA-170], the “Direct targeting of hPD-L1” value with hPD-L1 is reported as “did not target hPD-L1 directly”.

As to `C[C@@H]1O[C@@H](Oc2cc(O)c3c(=O)c(O[C@@H]4O[C@@H](C)[C@H](O)[C@@H](O)[C@H]4O)c(-c4ccc(O)cc4)oc3c2)[C@H](O)[C@H](O)[C@H]1O` [KI, kaempferol-3,7-dirhamnoside], in data set [1] (indicated concentration), the “Effect on PD-1/PD-L1 interaction in cell model” value is given as “no effect at the indicated concentration”. For the same compound, the “Cytotoxic concentration (not cytotoxic up to)” value in the data set on PD-L1/aAPC CHO-K1 cells and with PD-1 Jurkat cells was greater than 100 µM in each case.

What is called pEC50 is −log10 of the EC50, conventionally taken in molar units. Lower therefore signals a high EC50. With `O=c1c(O)c(-c2ccc(O)cc2)oc2cc(O)cc(O)c12` [KO, kaempferol], the negative-log EC50 (pEC50) in data set [1] is 4.78. Further, the “Cytotoxic concentration (not cytotoxic up to)” value in the data set on PD-L1/aAPC CHO-K1 cells and in the data set on PD-1 Jurkat cells was greater than 100 µM throughout. For the same compound, the “Effect on PD-1 level” value in data set [2] is recorded as “not upregulation of PD-1 level”. Further, the pIC50 in data set [3] (PD-L1-coated plate, biotinylated PD-1, read-out: IC50, PD-1/PD-L1 blocking effect) is 5.11. Besides, in data set [4], the Solubility in water was 440 mg/L and 1.537 mM.

What is called pKd is the Kd on a negative log10 scale, so that one unit is a factor of ten. As to `C[C@@H]1O[C@@H](Oc2cc(O)c3c(=O)c(O)c(-c4ccc(O)cc4)oc3c2)[C@H](O)[C@H](O)[C@H]1O` [KR, kaempferol 7-O-rhamnoside], the pEC50 in [1] is 4.81. For the same compound, the “Cytotoxic concentration (not cytotoxic up to)” value in the data set on PD-L1/aAPC CHO-K1 cells and with PD-1 Jurkat cells was greater than 100 µM each time. Besides, the negative logarithm of the Kd (pKd) on recombinant PD-1 (hPD-1) (Biacore T200, recombinant PD-1) was 3.81; on biotinylated human PD-1 (PD-1 immobilized on SA sensor, PBS pH 7.3 with 1% DMSO, 1:1 model), 4.51; at biotinylated human PD-L1 (PD-L1 immobilized on SA sensor, PBS pH 7.3 with 1% DMSO, 1:1 model), 4.71. In addition, the Rmax at recombinant PD-1 (hPD-1) (Biacore software) was 24.92. Also, the “Effect on PD-1 level” value in [2] is “not upregulation of PD-1 level”. Also, in data set [3], the “Inhibitory effect on PD-1/PD-L1 binding” value is “revealed inhibitory effects on PD-1/PD-L1 binding but did not show dose-dependent activities”. Further, the figures for the kd at biotinylated human PD-1 (PD-1) and on biotinylated human PD-L1 (PD-L1) were 0.00979 s⁻¹ and 0.00773 s⁻¹, respectively. The kon on biotinylated human PD-1 (PD-1, read-out: ka) came to 315 M⁻¹ s⁻¹; on biotinylated human PD-L1 (PD-L1, read-out: ka) it was 392 M⁻¹ s⁻¹. For the same compound, in data set [4], the Solubility in water is 1.16 mg/mL and 2.68 mM.
